One may read the IC50 as the point on the concentration scale where inhibition reaches its midpoint.

The test system of one experiment is MDA-MB-231. Kind of experiment: Anticancer activity against human MDA-MB-231 cells assessed as cell viability incubated for 48 hrs by MTT assay. The following applies: MDA-MB-231, 48 h. (Tetrazolium assays rely on reduction of a dye to a coloured formazan, in cell work by metabolically active cells.)
The next experiment deals with MDA-MB-436. Kind of experiment: Anticancer activity against human MDA-MB-436 cells assessed as cell viability incubated for 48 hrs by MTT assay. Particulars: MDA-MB-436, 48 h.

Take `C=CS(=O)(=O)N1CCN(c2ccn3ncc(-c4ccccc4)c3n2)CC1`: the IC50 amounted to 38.3 µM with MDA-MB-231 and 19.5 µM in the experiment on MDA-MB-436.
For `CN1CCN(c2ccc(-c3cc4c(N5CCN(S(=O)(=O)C6CC6)CC5)ncnc4s3)cc2)CC1` the same measures were 11.5 µM and 10.6 µM.
Consider `CN1CCN(c2ccc(-c3cc4c(N5CCN(S(=O)(=O)/C=C/c6ccccc6)CC5)ncnc4s3)cc2)CC1`, for which the IC50 in the experiment on MDA-MB-231 came to 5.9 µM; with MDA-MB-436, 8.67 µM.
Turning to `CCCNC(=O)N1CCN(c2ncnc3sc(-c4ccc(N5CCN(C)CC5)cc4)cc23)CC1`, the IC50 is 8.33 µM in the experiment on MDA-MB-231 and 12.4 µM with MDA-MB-436.
For the compound `C=CS(=O)(=O)N1CCN(c2ncnc3sc(-c4ccc(OC)cc4)cc23)CC1`, the IC50 was 29.9 µM in the experiment with MDA-MB-231 and 28.4 µM in the experiment on MDA-MB-436.
For `C=CC(=O)N1CCN(c2nc(OC[C@H]3CCCN3C)nc3sc(-c4ccc(C(=O)N5CCN(C)CC5)cc4)cc23)CC1` the same measures were 5.39 µM and 12.2 µM.
With `C=CS(=O)(=O)N1CCN(c2ncnc3sc(-c4cccs4)cc23)CC1`, the IC50 in the experiment on MDA-MB-231 came to 34.1 µM; in the experiment with MDA-MB-436 it was 39 µM.
As to `CN1CCN(c2ccc(-c3cc4c(N5CCN(C(=O)Nc6ccc(F)cc6F)CC5)ncnc4s3)cc2)CC1`, the IC50 amounted to 11.4 µM with MDA-MB-231 and 20.2 µM in the experiment on MDA-MB-436.
As to `C=CS(=O)(=O)N1CCN(c2ccn3ncc(-c4ccc(N5CCOCC5)cc4)c3n2)CC1`, the figures for the IC50 in the experiment with MDA-MB-231 and in the experiment on MDA-MB-436 were 42.3 µM and 16.2 µM, respectively.
Taken in the same sequence, the figures for `COc1ccccc1NC(=O)N1CCN(c2ncnc3sc(-c4ccc(N5CCN(C)CC5)cc4)cc23)CC1` were 23.2 µM and 26.3 µM.
For `C=CS(=O)(=O)N1CCN(c2ncnc3sc(-c4ccnc(Cl)c4)cc23)CC1` the same measures were 27.7 µM and 30.1 µM.
For the compound `C=CS(=O)(=O)N1CCN(c2nc(OC[C@H]3CCCN3C)nc3sc(-c4ccc(OC)nc4)cc23)CC1`, the IC50 with MDA-MB-231 came to 3.56 µM; with MDA-MB-436 it was 4.98 µM.
Consider `C=CS(=O)(=O)N1CCN(c2nc(OC[C@H]3CCCN3C)nc3sc(-c4ccc(N5CCN(C)CC5)cc4)cc23)CC1`, for which the IC50 was 0.76 µM with MDA-MB-231 and 0.54 µM with MDA-MB-436.
Turning to `C=CS(=O)(=O)N1CCN(c2ncnc3sc(-c4cn(S(=O)(=O)c5ccccc5)c5ccccc45)cc23)CC1`, the IC50 with MDA-MB-231 was 40.4 µM; in the experiment with MDA-MB-436 it was 38 µM.
With `C=CS(=O)(=O)N1CCN(c2ncnc3sc(-c4ccc(C#N)cc4)cc23)CC1`, the IC50 in the experiment on MDA-MB-231 stood at 8.05 µM; in the experiment on MDA-MB-436 it was 9.17 µM.
Turning to `CN1CCN(c2ccc(-c3cc4c(N5CCN(C(=O)Nc6ccccc6F)CC5)ncnc4s3)cc2)CC1`, the figures for the IC50 with MDA-MB-231 and in the experiment with MDA-MB-436 were 10.3 µM and 14.3 µM, respectively.
For `C=CS(=O)(=O)N1CCN(c2ncnc3sc(-c4cn(C)nc4C(F)(F)F)cc23)CC1` the same measures were 10.4 µM and 15.1 µM.
In the case of `C=CS(=O)(=O)N1CCN(c2ncnc3sc(-c4cnn(Cc5ccccc5)c4)cc23)CC1`, the half-inhibitory concentration (IC50) in the experiment with MDA-MB-231 stood at 19.1 µM; in the experiment with MDA-MB-436 it was 18.3 µM.
For the compound `CN1CCN(c2ccc(-c3cc4c(N5CCN(C(=O)Nc6ccccc6)CC5)ncnc4s3)cc2)CC1`, the IC50 with MDA-MB-231 came out at 7.59 µM; in the experiment with MDA-MB-436, 7.09 µM.
Take `CN1CCN(c2ccc(-c3cc4c(N5CCN(S(=O)(=O)N6CCCCC6)CC5)ncnc4s3)cc2)CC1`: the IC50 in the experiment with MDA-MB-231 came to 8.13 µM; in the experiment with MDA-MB-436, 7.57 µM.
For the compound `C=CS(=O)(=O)N1CCN(c2nc(OCC3CCCCN3C)nc3sc(-c4ccc(C#N)cc4)cc23)CC1` (configuration not stated), the IC50 with MDA-MB-231 is 3.18 µM; in the experiment on MDA-MB-436, 4.08 µM.
As for `C=CS(=O)(=O)N1CCN(c2nc(OC[C@H]3CCCN3C)nc3sc(-c4ccc(N5CCN(C)CC5)cc4)cc23)[C@@H](C)C1`, the results for the IC50 in the experiment with MDA-MB-231 and in the experiment with MDA-MB-436 were 2.88 µM and 1.92 µM, respectively.
For the compound `C=CS(=O)(=O)N1CCN(c2ncnc3sc(-c4ccc(N5CCN(C)CC5)cc4)cc23)[C@@H](C)C1`, the IC50 in the experiment on MDA-MB-231 was 6.18 µM; with MDA-MB-436, 6.92 µM.
On to `C=CS(=O)(=O)N1CCN(c2ncnc3sc(-c4cc(Br)cnc4F)cc23)CC1`, for which the IC50 in the experiment on MDA-MB-231 was 24.1 µM; in the experiment on MDA-MB-436, 28.4 µM.
Take `C=CS(=O)(=O)N1CCN(c2ncnc3sc(-c4ccc(N5CCN(C)CC5)cc4)cc23)CC1`: the IC50 in the experiment on MDA-MB-231 was found to be 7.55 µM; in the experiment on MDA-MB-436 it was 8.76 µM.
On to `CN1CCN(c2ccc(-c3cc4c(N5CCN(C(=O)Nc6cc(C(F)(F)F)ccc6F)CC5)ncnc4s3)cc2)CC1`, for which the IC50 in the experiment with MDA-MB-231 is 9.09 µM; in the experiment on MDA-MB-436 it was 8.84 µM.
Consider `C=CS(=O)(=O)N1CCN(c2ncnc3sc(C4=CCCCC4)cc23)CC1`, for which the IC50 in the experiment on MDA-MB-231 and in the experiment with MDA-MB-436 was more than 50 µM in each case.
For `CN1CCN(c2ccc(-c3cc4c(N5CCN(S(=O)(=O)c6ccccc6)CC5)nc(OCC5CCCCN5C)nc4s3)cc2)CC1` (configuration not stated), the IC50 in the experiment with MDA-MB-231 turned out to be 4.42 µM; in the experiment on MDA-MB-436, 10.7 µM.
As to `C=CS(=O)(=O)N1CCN(c2nc(OC[C@H]3CCCN3C)nc3sc(-c4ccc(C(=O)N5CCN(C)CC5)cc4)cc23)CC1`, the IC50 in the experiment with MDA-MB-231 stood at 4.2 µM; in the experiment with MDA-MB-436, 3.44 µM.
For the compound `C=CS(=O)(=O)N1CCN(c2ncnc3sc(-c4ccc(C(=O)N5CCN(C)CC5)cc4)cc23)CC1`, the IC50 in the experiment with MDA-MB-231 was 8.65 µM; in the experiment with MDA-MB-436, 9.66 µM.
With `C=CS(=O)(=O)N1CCN(c2ncnc3sc(-c4ccc(C(F)(F)F)cc4)cc23)CC1`, the figures for the IC50 in the experiment with MDA-MB-231 and in the experiment with MDA-MB-436 were 6.41 µM and 7.08 µM, respectively.
For `C=CS(=O)(=O)N1CCN(c2ncnc3sc(-c4cccc5ncccc45)cc23)CC1` the same measures were 21 µM and 25.9 µM.
On to `C=CS(=O)(=O)N1CCN(c2ncnc3sc(-c4cccc5ccccc45)cc23)CC1`, for which the IC50 amounted to 23.7 µM in the experiment on MDA-MB-231 and 28.1 µM in the experiment on MDA-MB-436.
Taken in the same sequence, the figures for `CC(C)c1cccc(C(C)C)c1NC(=O)N1CCN(c2ncnc3sc(-c4ccc(N5CCN(C)CC5)cc4)cc23)CC1` were 8.43 µM and 11.3 µM.
`C=CS(=O)(=O)N1CCN(c2nc(OC[C@H]3CCCN3C)nc3sc(-c4ccc(C(=O)N5CCN(C)CC5)cc4)cc23)[C@@H](C)C1`: the IC50 in the experiment with MDA-MB-231 was determined as 3.33 µM; in the experiment on MDA-MB-436 it was 1.53 µM.
Turning to `C=CS(=O)(=O)N1CCN(c2nc(OC[C@H]3CCCN3C)nc3sc(-c4ccc(C#N)cc4)cc23)CC1`, the IC50 in the experiment on MDA-MB-231 worked out at 3.01 µM; with MDA-MB-436, 2.29 µM.
Taken in the same sequence, the figures for `COc1ccc(NC(=O)N2CCN(c3ncnc4sc(-c5ccc(N6CCN(C)CC6)cc5)cc34)CC2)cc1` were 20.9 µM and 30.1 µM.
In the case of `CN1CCN(c2ccc(-c3cc4c(N5CCN(C(=O)Nc6ccc(C#N)cc6)CC5)ncnc4s3)cc2)CC1`, the IC50 in the experiment on MDA-MB-231 came out at 3.93 µM; in the experiment with MDA-MB-436, 5.01 µM.
`CCS(=O)(=O)N1CCN(c2nc(OC[C@H]3CCCN3C)nc3sc(-c4ccc(C(=O)N5CCN(C)CC5)cc4)cc23)CC1`: the IC50 in the experiment with MDA-MB-231 is 4.2 µM; in the experiment on MDA-MB-436, 3.44 µM.
Consider `C=CS(=O)(=O)N1CCN(c2ncnc3ccc(-c4ccccc4)cc23)CC1`, for which the IC50 in the experiment on MDA-MB-231 was 47.9 µM; in the experiment on MDA-MB-436, 23.4 µM.
For `CCS(=O)(=O)N1CCN(c2ncnc3sc(-c4ccc(N5CCN(C)CC5)cc4)cc23)CC1`, the IC50 with MDA-MB-231 amounted to 7.33 µM; with MDA-MB-436, 10.6 µM.
Taken in the same sequence, the figures for `C=CS(=O)(=O)N1CCN(c2ccnc3ccc(-c4ccccc4)cc23)CC1` were 25.4 µM and 25.3 µM.
Consider `C=CS(=O)(=O)N1CCN(c2ncnc3sc(-c4ccc(F)nc4)cc23)CC1`, for which the IC50 in the experiment on MDA-MB-231 amounted to 16 µM; with MDA-MB-436 it was 17.5 µM.
As for `C=CS(=O)(=O)N1CCN(c2ncnc3sc(-c4ccc(N5CCOCC5)cc4)cc23)CC1`, the IC50 was found to be 18.4 µM in the experiment on MDA-MB-231 and 17.7 µM with MDA-MB-436.
As for `C=CS(=O)(=O)N1CCN(c2nc(OC[C@H]3CCCN3C)nc3sccc23)CC1`, the IC50 with MDA-MB-231 and with MDA-MB-436 was more than 50 µM in each case.
In the case of `C=CS(=O)(=O)N1CCN(c2ncnc3sc(-c4ccccc4)cc23)CC1`, the IC50 in the experiment on MDA-MB-231 stood at 54.2 µM; in the experiment with MDA-MB-436, 21.1 µM.
In the case of `CN1CCN(c2ccc(-c3cc4c(N5CCN(C(=O)Nc6cccc(F)c6)CC5)ncnc4s3)cc2)CC1`, the IC50 in the experiment on MDA-MB-231 was found to be 13.2 µM; in the experiment with MDA-MB-436, 18.3 µM.
For `CN1CCN(c2ccc(-c3cc4c(N5CCN(C(=O)Nc6ccc(Cl)cc6)CC5)ncnc4s3)cc2)CC1` the same measures were 5.44 µM and 9.27 µM.
As to `C=CS(=O)(=O)N1CCN(c2ncnc3sc(-c4ccc(OC)nc4)cc23)CC1`, the IC50 worked out at 9.27 µM in the experiment on MDA-MB-231 and 11.9 µM in the experiment on MDA-MB-436.
`C=CS(=O)(=O)N1CCN(c2ncnc3sc(-c4c(C)noc4C)cc23)CC1`: the IC50 came to 28.2 µM with MDA-MB-231 and 34.6 µM in the experiment with MDA-MB-436.
`CN1CCN(c2ccc(-c3cc4c(N5CCN(C(=O)Nc6ccc(OC(F)(F)F)cc6)CC5)ncnc4s3)cc2)CC1`: the IC50 with MDA-MB-231 stood at 4.6 µM; with MDA-MB-436 it was 6.25 µM.

For the origin of these results see ChEMBL document CHEMBL4837240 (J Med Chem, 2021).
